Experimental findings from ChEMBL document CHEMBL6087398, “Natural phenol carbamates: Selective BuChE/FAAH dual inhibitors show neuroprotection in an Alzheimer's disease mouse model” (Eur J Med Chem, 2025) are described below.

The target of data set [1] is Acetylcholinesterase (Electrophorus electricus) (UniProt O42275). The experiment in a line: Inhibition of electric eel AChE using acetylthiocholine iodide as substrate preincubated with enzyme for 20 mins followed by substrate addition and measured after 20 mins by Ellman's method. Details: concentration or dose not given beside the values. The conditions noted are these: time 40.0 min.
Sequence of Acetylcholinesterase (Electrophorus electricus) (O42275 24-633 limits assumed): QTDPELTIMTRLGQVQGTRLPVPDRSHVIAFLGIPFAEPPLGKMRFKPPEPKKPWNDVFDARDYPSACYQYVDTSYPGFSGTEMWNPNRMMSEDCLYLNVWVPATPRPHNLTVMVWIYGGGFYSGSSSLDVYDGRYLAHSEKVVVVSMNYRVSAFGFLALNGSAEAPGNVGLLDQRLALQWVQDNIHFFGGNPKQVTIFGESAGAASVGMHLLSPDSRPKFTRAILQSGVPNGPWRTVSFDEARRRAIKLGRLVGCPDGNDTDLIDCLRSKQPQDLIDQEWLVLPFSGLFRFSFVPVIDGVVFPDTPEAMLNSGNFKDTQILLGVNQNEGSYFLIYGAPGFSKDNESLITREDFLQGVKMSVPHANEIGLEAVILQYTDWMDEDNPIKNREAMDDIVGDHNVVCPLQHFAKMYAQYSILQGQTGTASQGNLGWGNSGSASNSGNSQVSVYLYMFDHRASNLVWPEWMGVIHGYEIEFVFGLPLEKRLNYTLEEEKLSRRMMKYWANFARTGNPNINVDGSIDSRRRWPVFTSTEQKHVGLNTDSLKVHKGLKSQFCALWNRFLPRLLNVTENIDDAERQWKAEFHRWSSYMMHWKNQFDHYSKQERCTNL

The target of data set [2] is Cholinesterase (Equus caballus, UniProt P81908). The experiment in a line: Inhibition of equine BuChE using butyrylthiocholine iodide as substrate preincubated with enzyme for 20 mins followed by substrate addition and measured after 20 mins by Ellman's method.
Sequence of Cholinesterase (Equus caballus, UniProt P81908) (P81908 whole entry): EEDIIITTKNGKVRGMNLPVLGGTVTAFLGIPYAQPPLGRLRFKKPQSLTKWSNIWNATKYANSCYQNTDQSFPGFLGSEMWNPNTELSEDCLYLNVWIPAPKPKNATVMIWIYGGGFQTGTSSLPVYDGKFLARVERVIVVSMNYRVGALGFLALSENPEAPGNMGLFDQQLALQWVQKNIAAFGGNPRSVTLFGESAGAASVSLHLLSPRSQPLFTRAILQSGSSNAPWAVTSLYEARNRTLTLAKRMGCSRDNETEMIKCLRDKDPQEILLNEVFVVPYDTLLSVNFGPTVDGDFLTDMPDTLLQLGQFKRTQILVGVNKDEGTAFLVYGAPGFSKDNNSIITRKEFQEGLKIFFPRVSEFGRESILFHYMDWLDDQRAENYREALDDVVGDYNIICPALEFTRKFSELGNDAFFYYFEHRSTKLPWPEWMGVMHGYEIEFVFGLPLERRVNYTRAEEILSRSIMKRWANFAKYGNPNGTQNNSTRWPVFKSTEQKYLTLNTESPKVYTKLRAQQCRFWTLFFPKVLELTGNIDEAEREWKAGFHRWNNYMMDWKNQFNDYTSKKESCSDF
Data set [3] addresses Acetylcholinesterase (Homo sapiens) (UniProt P22303). Put plainly: Inhibition of recombinant human AChE using acetylthiocholine iodide as substrate incubated for 5 mins relative to control.
For data set [4], the target named is T1, Cholinesterase (Homo sapiens, UniProt P06276). Put plainly: Inhibition of human BuChE using butyrylthiocholine iodide as substrate incubated for 5 mins.
T1 sequence (P06276 whole entry): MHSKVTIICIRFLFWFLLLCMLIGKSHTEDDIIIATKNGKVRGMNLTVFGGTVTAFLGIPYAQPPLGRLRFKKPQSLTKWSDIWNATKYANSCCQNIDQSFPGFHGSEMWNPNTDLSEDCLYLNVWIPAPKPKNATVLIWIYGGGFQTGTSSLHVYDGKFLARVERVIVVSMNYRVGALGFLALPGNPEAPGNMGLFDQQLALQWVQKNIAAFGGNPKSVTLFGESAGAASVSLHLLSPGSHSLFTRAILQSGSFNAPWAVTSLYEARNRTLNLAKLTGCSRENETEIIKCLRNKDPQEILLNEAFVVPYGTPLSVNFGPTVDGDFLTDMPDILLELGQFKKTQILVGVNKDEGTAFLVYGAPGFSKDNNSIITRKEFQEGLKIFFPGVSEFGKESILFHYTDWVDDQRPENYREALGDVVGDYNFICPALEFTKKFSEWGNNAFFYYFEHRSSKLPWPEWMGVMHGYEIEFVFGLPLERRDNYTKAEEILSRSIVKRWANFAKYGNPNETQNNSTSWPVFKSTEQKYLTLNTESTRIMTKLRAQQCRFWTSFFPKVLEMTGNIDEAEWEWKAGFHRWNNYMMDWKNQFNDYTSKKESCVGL
In data set [5] the target is T2, Fatty-acid amide hydrolase 1 (Homo sapiens, UniProt O00519).
T2 sequence (O00519 whole entry): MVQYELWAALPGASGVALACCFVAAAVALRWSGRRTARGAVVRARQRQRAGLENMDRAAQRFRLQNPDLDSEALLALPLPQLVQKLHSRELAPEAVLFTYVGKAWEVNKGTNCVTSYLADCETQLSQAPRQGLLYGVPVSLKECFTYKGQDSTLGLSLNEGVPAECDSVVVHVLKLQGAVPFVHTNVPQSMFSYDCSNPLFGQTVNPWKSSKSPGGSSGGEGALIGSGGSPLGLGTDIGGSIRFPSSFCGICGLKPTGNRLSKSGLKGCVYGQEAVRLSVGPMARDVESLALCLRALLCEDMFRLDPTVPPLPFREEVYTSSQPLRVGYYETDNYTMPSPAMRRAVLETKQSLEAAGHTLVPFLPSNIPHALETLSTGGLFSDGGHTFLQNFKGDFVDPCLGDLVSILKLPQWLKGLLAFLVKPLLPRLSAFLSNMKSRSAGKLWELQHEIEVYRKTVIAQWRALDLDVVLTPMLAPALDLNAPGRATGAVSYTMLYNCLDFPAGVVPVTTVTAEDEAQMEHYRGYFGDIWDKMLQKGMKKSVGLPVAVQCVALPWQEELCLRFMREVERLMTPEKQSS
Put plainly: Inhibition of human FAAH using arachidonoyl amide as substrate incubated for 30 mins by fluorescence-based cayman assay.

In data set [6] the target is Acetylcholinesterase (Electrophorus electricus) (UniProt O42275). The experiment in a line: Inhibition of electric eel AChE using acetylthiocholine iodide as substrate preincubated with enzyme for 20 mins followed by substrate addition and measured after 20 mins by Ellman's method relative to control. Details: concentration or dose not given beside the values. The conditions noted are these: time 40.0 min.

For data set [7], the system named is L02. Put plainly: Cytotoxicity against human L02 cells assessed as reduction in cell viability at 12.5 uM incubated for 24 hrs by MTT assay. Type of data set: toxicity, cell-based. Particulars: l02, 24 h.
The test system of data set [8] is L02. Put plainly: Cytotoxicity against human L02 cells assessed as reduction in cell viability at 50 uM incubated for 24 hrs by MTT assay. Particulars: l02, 24 h. Type of data set: toxicity, cell-based.
The subject of data set [9] is PC-12. The experiment in a line: Neuroprotective activity against H2O2 induced rat PC12 cells assessed as increase in cell viability at 50 uM measured after 24 hrs by MTT assay relative to control. Type of data set: functional.
Data set [10] addresses T1, Cholinesterase. Put plainly: Binding affinity to human BuChE (unknown origin) assessed as decarbamolyation rate at 0.025 to 100 uM incubated for 60 mins. Particulars: dose 0.025-100 µM.
The target in data set [11] is T1, Cholinesterase. The experiment in a line: Binding affinity to human BuChE (unknown origin) assessed as equilibrium dissociation constant at 0.025 to 100 uM incubated for 60 mins.
Data set [12] has as its target T1, Cholinesterase. The experiment in a line: Binding affinity to human BuChE (unknown origin) assessed as carbamolyation rate at 0.025 to 100 uM incubated for 60 mins. Particulars: dose 0.025-100 µM.
For data set [13], the target named is T1, Cholinesterase. Put plainly: Binding affinity to human BuChE (unknown origin) assessed as overall carbamolyation rate at 0.025 to 100 uM incubated for 60 mins.
The test system of data set [14] is L02. Put plainly: Cytotoxicity against human L02 cells assessed as reduction in cell viability at 25 uM incubated for 24 hrs by MTT assay. The conditions noted are these: l02, 24 h. Type of data set: toxicity, cell-based.
For data set [15], the system named is PC-12. Put plainly: Neuroprotective activity against H2O2 induced rat PC12 cells assessed as cell viability measured after 24 hrs by MTT assay. Type of data set: functional, cell-based. The conditions noted are these: dose 6.25-50 µM.
A further data set in a line: in vitro. Particulars: PAMPA, pH 7.4.

The source made the active and inactive calls. No cut-off for these calls is given here.

Sequence of Acetylcholinesterase (Homo sapiens) (P22303 whole entry): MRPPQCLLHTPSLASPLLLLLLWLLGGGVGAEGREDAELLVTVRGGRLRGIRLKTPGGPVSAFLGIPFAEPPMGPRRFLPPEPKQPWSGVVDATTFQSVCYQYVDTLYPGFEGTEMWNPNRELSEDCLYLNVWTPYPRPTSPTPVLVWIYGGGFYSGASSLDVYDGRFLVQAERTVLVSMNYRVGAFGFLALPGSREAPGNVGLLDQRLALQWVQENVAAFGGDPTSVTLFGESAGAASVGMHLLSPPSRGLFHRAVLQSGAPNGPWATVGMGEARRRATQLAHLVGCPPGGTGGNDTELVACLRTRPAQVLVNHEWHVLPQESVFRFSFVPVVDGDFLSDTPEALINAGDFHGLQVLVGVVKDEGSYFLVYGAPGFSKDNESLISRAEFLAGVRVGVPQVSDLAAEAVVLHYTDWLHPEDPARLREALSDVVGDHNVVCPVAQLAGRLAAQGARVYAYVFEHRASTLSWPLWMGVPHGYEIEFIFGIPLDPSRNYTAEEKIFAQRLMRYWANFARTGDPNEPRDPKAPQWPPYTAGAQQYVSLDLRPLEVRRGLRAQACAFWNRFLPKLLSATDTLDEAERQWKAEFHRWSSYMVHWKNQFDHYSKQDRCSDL
Description for in vitro: Permeability of the compound in PBS at pH 7.4 incubated for 18 hrs by PAMPA-BBB assay

In the case of `COc1ccc(C(C)=O)c(OC(=O)N2CCC(C)CC2)c1`, the inhibition in [1] is 33%; in data set [3], 23%. For the same compound, the IC50 on Cholinesterase [2] was 0.08 µM; against Cholinesterase [4] it was 1.93 µM; in data set [5], 28.4 µM.

`CCN(C)C(=O)Oc1cc(C(C)C)ccc1C`: the inhibition entry in data set [1] is “inactive”. Also, inhibition at Cholinesterase [2] was half-maximal at 0.78 µM (IC50).

With `COc1ccc(C(C)=O)c(OC(=O)N2CCSC2)c1`, the inhibition in data set [1] came out at 44%. Moreover, inhibition against Cholinesterase [2] was half-maximal at 0.64 µM (IC50).

For the compound `C=CCc1ccc(OC(=O)N2CCCC2)c(OC)c1`, the inhibition entry in data set [1] is “inactive”. This compound also registered an IC50 against Cholinesterase [2] of 2 µM.

On to `C=CCc1ccc(OC(=O)N(C)Cc2cccc(Br)c2)c(OC)c1`, for which the inhibition came to 17% in [1] and 67% in data set [6].

As for `C=CCc1ccc(OC(=O)N2CCCCC2)c(OC)c1`, the inhibition in data set [1] was 42%. This compound registered an IC50 at Cholinesterase [2] of 0.31 µM.

The compound `Cc1ccc(C(C)C)cc1OC(=O)N(C)C` registered an inhibition in data set [1] of 62%. The same compound yielded an IC50 on Cholinesterase [2] of 0.59 µM.

For the compound `C=CCc1ccc(OC(=O)N(C)Cc2ccccc2)c(OC)c1`, in data set [1], the inhibition was determined as 25%. In data set [6], the inhibition entry was “inactive”.

For `C=CCc1ccc(OC(=O)N(C)Cc2ccc(Br)cc2)c(OC)c1`, in [1], the inhibition result was “inactive”. This compound also returned an inhibition in data set [6] of 57%.

`COc1ccc(C(C)=O)c(OC(=O)N2CCCC2)c1`: in data set [1], the inhibition was 21%. On Cholinesterase [2], the half-inhibitory concentration (IC50) is 1.93 µM.

`COc1ccc(C(C)=O)c(OC(=O)N(C)Cc2ccc(Cl)cc2)c1`: the inhibition in [1] stood at 5.8%. Besides, the IC50 turned out to be 0.057 µM against Cholinesterase [2], 0.089 µM at Cholinesterase [4] and 16.6 µM in data set [5]. Besides, in data set [3], the inhibition entry is “inactive”.

On to `COc1ccc(C(C)=O)c(OC(=O)N(C)C)c1`, for which the inhibition in [1] was 8.3%. This compound also came in with a half-maximal inhibitory concentration (IC50) at Cholinesterase [2] of 1.64 µM.

Regarding `CNC(=O)Oc1cc(OC)ccc1C(C)=O`, in [1], the inhibition is 23%. For the same compound, the half-maximal inhibitory concentration (IC50) against Cholinesterase [2] is 2.54 µM.

For the compound `C=CCc1ccc(OC(=O)N(C)CC)c(OC)c1`, the inhibition in data set [1] is 69%; in data set [6] it was 74%.

With `COc1ccc(C(C)=O)c(OC(=O)N(C)Cc2cccc(Br)c2)c1`, the inhibition entry in [1] was “inactive”. This compound also came in with a 50% inhibitory concentration (IC50) at Cholinesterase [2] of 3.41 µM.

For the compound `Cc1ccc(C(C)C)cc1OC(=O)N(C)Cc1ccc(Br)cc1`, the inhibition in [1] was 32%. Further, on Cholinesterase [2], the IC50 came out at 1.96 µM.

As to `COc1cc2c(cc1OC)C(=O)C(CC1CCN(Cc3ccccc3)CC1)C2` (centres undefined) [DONEPEZIL], the Activity result in the data set on L02 [7] is on record as “Non-toxic”; with L02 [8], 83.4%; with PC-12 [9], 43%.

On to `CNC(=O)Oc1cc(C(C)C)ccc1C`, for which, in data set [1], the inhibition came to 56%. At Cholinesterase [2], half-maximal inhibition (IC50) required 2.96 µM.

On to `Cc1ccc(C(C)C)cc1OC(=O)N1CCCC1`, for which the inhibition entry in data set [1] was “inactive”. Besides, the 50% inhibitory concentration (IC50) at Cholinesterase [2] worked out at 0.68 µM.

Consider `CCN(Cc1ccc(Cl)cc1)C(=O)Oc1cc(OC)ccc1C(C)=O`, for which the inhibition entry in [1] is “inactive”. Besides, the midpoint of inhibition on Cholinesterase [2], the IC50, lay at 0.42 µM.

On Cholinesterase [2], `Cc1ccc(C(C)C)cc1OC(=O)N1CCCCC1` registered a 50% inhibitory concentration (IC50) of 0.03 µM.

`C=CCc1ccc(OC(=O)NC)c(OC)c1`: the values for the inhibition in [1] and in data set [6] were 42% and 53%, respectively.

In [1], `COc1ccc(C(C)=O)c(OC(=O)N(C)Cc2cccc(F)c2)c1` gave an inhibition of 20%. This compound also gave a half-inhibitory concentration (IC50) against Cholinesterase [2] of 0.4 µM.

Regarding `COc1ccc(C(C)=O)c(OC(=O)Nc2ccc(Cl)cc2)c1`, in data set [1], the inhibition was 4.6%. For the same compound, the midpoint of inhibition on Cholinesterase [2], the IC50, lay at 1.27 µM.

Regarding `COc1ccc(C(C)=O)c(OC(=O)N2CCC(Cc3ccccc3)CC2)c1`, the inhibition in data set [1] amounted to 43%. Moreover, at Cholinesterase [2], the IC50 was 0.31 µM.

Take `COc1ccc(C(C)=O)c(OC(=O)N2CCCCC2)c1`: the K on Cholinesterase [10] turned out to be 0.024 min⁻¹; at Cholinesterase [12] it was 0.41 min⁻¹. In data set [1], the inhibition was found to be 6.9%. In addition, the results for the concentration for half-maximal inhibition (IC50) (against Cholinesterase [2]; against Cholinesterase [4]; in [5]) were 0.006 µM, 0.113 µM and 8.02 µM, respectively. Besides, the inhibition result in data set [3] was “inactive”. Besides, the Kd at Cholinesterase [11] amounted to 0.3 µM. In addition, the Ki on Cholinesterase [13] is recorded as 0.31 10^-3/uM/min. Moreover, the Activity entry in the data set on L02 [7] was “Non-toxic”; in the data set with L02 [8], 81.4%; with L02 [14], 81.6%; with PC-12 [9], 42%; in the data set on PC-12 [15] it was “Dose-dependent-effect”. In the data set “in vitro”, this compound came in with a Papp at 18 h of 17.5 ×10⁻⁶ cm/s.

Regarding `COc1ccc(C(C)=O)c(OC(=O)N2CCc3cc(OC)c(OC)cc3C2)c1`, the inhibition entry in [1] was “inactive”. At Cholinesterase [2], this compound returned an IC50 of 3.52 µM.

In turn, `COc1ccc(C(C)=O)c(OC(=O)N(C)Cc2ccccc2)c1` gave an inhibition in data set [1] of 6.6%. Further, the half-maximal inhibitory concentration (IC50) on Cholinesterase [2] was determined as 0.19 µM.

Turning to `C=CCc1ccc(OC(=O)N2CCc3ccccc3C2)c(OC)c1`, the inhibition in [1] is 65%; in data set [6] it was 23%.

In [1], `COc1ccc(C(C)=O)c(OC(=O)N(C)Cc2ccc(Br)cc2)c1` returned an inhibition of 34%. The compound further registered a 50% inhibitory concentration (IC50) against Cholinesterase [2] of 2.81 µM.

As for `COc1ccc(C(C)=O)c(OC(=O)N(C)Cc2ccccc2F)c1`, the inhibition result in data set [1] is “inactive”. On Cholinesterase [2], this compound displayed an IC50 of 0.94 µM.

`Cc1ccc(C(C)C)cc1OC(=O)N(C)Cc1cccc(Cl)c1` had an inhibition in data set [1] of 36%. On Cholinesterase [2], this compound came in with an IC50 of 1.13 µM.

As for `C=CCc1ccc(OC(=O)N(C)C)c(OC)c1`, the inhibition result in data set [1] is “inactive”. The same compound registered an inhibition in data set [6] of 69%.

`Cc1ccc(C(C)C)cc1OC(=O)N(C)Cc1cccc(Br)c1` came in with an inhibition in [1] of 37%. At Cholinesterase [2], this compound gave a half-inhibitory concentration (IC50) of 3.81 µM.

On to `O=C(Oc1ccc([N+](=O)[O-])cc1)N1CCN(Cc2cccc(Oc3ccccc3)c2)CC1`, for which, in [5], the IC50 was 0.011 µM.

In the case of `COc1ccc(C(C)=O)c(OC(=O)N2CCc3ccccc3C2)c1`, the inhibition in [1] was determined as 27%. For the same compound, the half-maximal inhibitory concentration (IC50) at Cholinesterase [2] was 11.5 µM.

Consider `CCN(C)C(=O)Oc1cccc([C@H](C)N(C)C)c1` [RIVASTIGMINE], for which the inhibition in data set [3] was 4.65%. The compound also came in with an IC50 in data set [5] of 14 µM.

In turn, `CCN(C)C(=O)Oc1cc(OC)ccc1C(C)=O` registered an inhibition in [1] of 1.7%. At Cholinesterase [2], this compound registered an IC50 of 3.68 µM.
